Experimental data: PubChem BioAssay AID328 (DTP/NCI, 2004)
Where “and” joins values, the source holds several entries; their conditions need not be identical. Identical values can stand only once. Toxic doses and inconclusive results are not listed. How the source made its calls: active means survival T/C of 150% or more; inactive means T/C below 125% in these data.

Test system: BDF1 mice, P388 leukemia ip, median survival T/C
Assay: NCI In Vivo Anticancer Drug Screen. Data for tumor model P388 Leukemia (intraperitoneal) in B6D2F1 (BDF1) mice
Details: endpoint: median survival time, higher = longer survival
How it was run: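 Reported as T/C, where T is the survival measurement in dosed animals and C the same measurement in vehicle controls.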

[1] = dose: 25.0 mg/kg/injection, schedule: Q01DX009 (ip), vehicle: saline with Tween-80
[2] = dose: 50.0 mg/kg/injection, schedule: Q01DX009 (ip), vehicle: saline with Tween-80
[3] = dose: 100.0 mg/kg/injection, schedule: Q04DX003 (ip), vehicle: Klucel (hydroxypropylcellulose) (HPC)
[4] = dose: 200.0 mg/kg/injection, schedule: Q04DX003 (ip), vehicle: Klucel (hydroxypropylcellulose) (HPC)
[5] = dose: 400.0 mg/kg/injection, schedule: Q04DX003 (ip), vehicle: Klucel (hydroxypropylcellulose) (HPC)
[6] = dose: 75.0 mg/kg/injection, schedule: Q01DX009 (ip), vehicle: saline with Tween-80
[7] = dose: 100.0 mg/kg/injection, schedule: Q01DX009 (ip), vehicle: saline with Tween-80
[8] = dose: 100.0 mg/kg/injection, schedule: Q04DX003 (ip), vehicle: saline with Tween-80
[9] = dose: 200.0 mg/kg/injection, schedule: Q04DX003 (ip), vehicle: saline with Tween-80
[10] = dose: 100.0 mg/kg/injection, schedule: Q04DX003 (ip), vehicle: other

Measured: T/C

CCOC(=O)C1Cc2c([nH]c(=S)[nH]c2=O)OC1c1ccccc1 (centres undefined)
inactive: dose: 12.5 mg/kg/injection, schedule: Q01DX009 (ip), vehicle: saline with Tween-80 100 % of control | [1] 90 % of control | [2] 104 % of control

CN(CCC(=O)c1cccc2ccccc12)Cc1ccccc1
inactive: dose: 100.0 mg/kg/injection, schedule: Q01DX009 (ip), vehicle: Klucel (hydroxypropylcellulose) (HPC) 115 % of control | dose: 200.0 mg/kg/injection, schedule: Q01DX009 (ip), vehicle: Klucel (hydroxypropylcellulose) (HPC) 100 % of control | dose: 400.0 mg/kg/injection, schedule: Q01DX009 (ip), vehicle: Klucel (hydroxypropylcellulose) (HPC) 105 % of control

O=C(C1CC2CCC1C2)C1CC2CCC1C2 (centres undefined)
inactive: dose: 100.0 mg/kg/injection, schedule: Q01DX009 (ip), vehicle: other 95 % of control | [3] 100 % of control | [4] 108 % of control | [5] 104 % of control

O=C1NC(=O)C(=Cc2cc3c(cc2Br)OCO3)C(=O)N1
inactive: [6] 123 % of control | [7] 124 % of control | dose: 150.0 mg/kg/injection, schedule: Q01DX009 (ip), vehicle: saline with Tween-80 120 % of control

FC(F)(F)c1ccc2c(c1)N(CCCN1CCN(CCN3CCOCC3)CC1)c1ccccc1S2
inactive: dose: 12.5 mg/kg/injection, schedule: Q04DX003 (ip), vehicle: saline 99 % of control and 100 % of control | dose: 25.0 mg/kg/injection, schedule: Q04DX003 (ip), vehicle: saline 86 % of control and 99 % of control | dose: 50.0 mg/kg/injection, schedule: Q04DX003 (ip), vehicle: saline 104 % of control and 112 % of control

O=C1C=C(Nc2nc(O)cc(=O)[nH]2)c2ccccc2C1=O
inactive: dose: 37.5 mg/kg/injection, schedule: Q01DX001 (ip), vehicle: Klucel (hydroxypropylcellulose) (HPC) 100 % of control | dose: 75.0 mg/kg/injection, schedule: Q01DX001 (ip), vehicle: Klucel (hydroxypropylcellulose) (HPC) 100 % of control | dose: 150.0 mg/kg/injection, schedule: Q01DX001 (ip), vehicle: Klucel (hydroxypropylcellulose) (HPC) 100 % of control | dose: 150.0 mg/kg/injection, schedule: Q04DX003 (ip), vehicle: Klucel (hydroxypropylcellulose) (HPC) 95 % of control

CC(=O)O[C@H]1[C@H]2O[C@]23[C@@H]2CC[C@@H]4C[C@@H](O)CC[C@]4(C)[C@H]2CC[C@]3(C)[C@H]1c1ccc(=O)oc1
inactive: dose: 3.75 mg/kg/injection, schedule: Q01DX009 (ip), vehicle: Klucel (hydroxypropylcellulose) (HPC) 100 % of control | dose: 7.5 mg/kg/injection, schedule: Q01DX009 (ip), vehicle: Klucel (hydroxypropylcellulose) (HPC) 104 % of control | dose: 10.0 mg/kg/injection, schedule: Q01DX010 (ip), vehicle: carboxymethylcellulose (CMC) 90 % of control | dose: 20.0 mg/kg/injection, schedule: Q01DX010 (ip), vehicle: carboxymethylcellulose (CMC) 90 % of control

Cc1ccc(C(=O)N=[N+]=[N-])o1
inactive: [2] 108 % of control

COc1cc(/C=C2\C(=O)NC(=O)N(c3ccccc3)C2=O)cc(OC)c1OC
inactive: [1] 109 % of control | [2] 118 % of control | dose: 50.0 mg/kg/injection, schedule: Q04DX003 (ip), vehicle: saline with Tween-80 100 % of control | [7] 118 % of control | [8] 108 % of control | [9] 112 % of control

Clc1ccc(C[P+](c2ccccc2)(c2ccccc2)c2ccccc2)cc1Cl
inactive: dose: 0.45 mg/kg/injection, schedule: Q01DX009 (ip), vehicle: saline 104 % of control | dose: 0.9 mg/kg/injection, schedule: Q01DX009 (ip), vehicle: saline 100 % of control | dose: 1.35 mg/kg/injection, schedule: Q01DX001 (ip), vehicle: saline 100 % of control | dose: 1.8 mg/kg/injection, schedule: Q01DX009 (ip), vehicle: saline 91 % of control | dose: 2.7 mg/kg/injection, schedule: Q01DX001 (ip), vehicle: saline 95 % of control | dose: 3.6 mg/kg/injection, schedule: Q01DX009 (ip), vehicle: saline 108 % of control

CC1=Nc2ccccc2N(C)/C1=C/C1=C(Cl)C(=O)c2ccccc2C1=O
inactive: dose: 25.0 mg/kg/injection, schedule: Q01DX001 (ip), vehicle: saline with Tween-80 103 % of control | dose: 50.0 mg/kg/injection, schedule: Q01DX001 (ip), vehicle: saline with Tween-80 94 % of control | dose: 100.0 mg/kg/injection, schedule: Q01DX001 (ip), vehicle: saline with Tween-80 108 % of control

CCN(C(=O)C(F)(F)F)C1(c2ccc(Cl)cc2)CCCCC1SSSC1CCCCC1(c1ccc(Cl)cc1)N(CC)C(=O)C(F)(F)F (centres undefined)
inactive: [8] 100 % of control | [9] 100 % of control | dose: 400.0 mg/kg/injection, schedule: Q04DX003 (ip), vehicle: saline with Tween-80 104 % of control

O=C(NC(Cc1ccccc1)C(=O)Oc1ccc(Cl)cc1)OCc1ccccc1 (centres undefined)
inactive: dose: 100.0 mg/kg/injection, schedule: Q04DX002 (ip), vehicle: saline with Tween-80 101 % of control | dose: 200.0 mg/kg/injection, schedule: Q04DX002 (ip), vehicle: saline with Tween-80 94 % of control | dose: 400.0 mg/kg/injection, schedule: Q04DX002 (ip), vehicle: saline with Tween-80 100 % of control and 91 % of control

CC(C)(C)OOC(=O)c1ccccc1O
inactive: dose: 12.5 mg/kg/injection, schedule: Q04DX003 (ip), vehicle: other 102 % of control | dose: 25.0 mg/kg/injection, schedule: Q04DX003 (ip), vehicle: other 101 % of control | [2] 122 % of control | dose: 50.0 mg/kg/injection, schedule: Q04DX003 (ip), vehicle: other 101 % of control | [10] 118 % of control

CCN(CC)S(=O)(=O)c1cccc(C(O)CC(O)(C(F)(F)F)C(F)(F)F)c1 (centres undefined)
inactive: [10] 95 % of control | dose: 200.0 mg/kg/injection, schedule: Q04DX003 (ip), vehicle: other 86 % of control | dose: 400.0 mg/kg/injection, schedule: Q04DX003 (ip), vehicle: other 90 % of control

C=CN1CCCC1=O
inactive: dose: 100.0 mg/kg/injection, schedule: Q01DX001 (ip), vehicle: saline 100 % of control | dose: 100.0 mg/kg/injection, schedule: Q01DX009 (ip), vehicle: saline 90 % of control | dose: 200.0 mg/kg/injection, schedule: Q01DX001 (ip), vehicle: saline 95 % of control | dose: 200.0 mg/kg/injection, schedule: Q01DX009 (ip), vehicle: saline 118 % of control | dose: 400.0 mg/kg/injection, schedule: Q01DX001 (ip), vehicle: saline 100 % of control | dose: 400.0 mg/kg/injection, schedule: Q01DX009 (ip), vehicle: saline 122 % of control

CN(C)c1ccc(/C=C2\SC(=S)N(Cc3ccco3)C2=O)cc1
inactive: [2] 92 % of control | [7] 91 % of control | dose: 200.0 mg/kg/injection, schedule: Q01DX009 (ip), vehicle: saline with Tween-80 88 % of control

COC(=O)c1cc(Cl)c(C(=O)OC)cc1Cl
inactive: [3] 104 % of control | [4] 96 % of control | [5] 100 % of control

O=C1C[C@H]2[C@H](CO)[C@@H](OC(=O)c3ccc(-c4ccccc4)cc3)C[C@H]2O1
inactive: dose: 12.5 mg/kg/injection, schedule: Q01DX009 (ip), vehicle: Klucel (hydroxypropylcellulose) (HPC) 105 % of control | dose: 25.0 mg/kg/injection, schedule: Q01DX009 (ip), vehicle: Klucel (hydroxypropylcellulose) (HPC) 115 % of control | dose: 50.0 mg/kg/injection, schedule: Q01DX009 (ip), vehicle: Klucel (hydroxypropylcellulose) (HPC) 105 % of control | [6] 120 % of control

Cc1nc2ccccc2nc1CI
inactive: dose: 2.9 mg/kg/injection, schedule: Q01DX009 (ip), vehicle: saline 110 % of control | dose: 4.5 mg/kg/injection, schedule: Q01DX009 (ip), vehicle: saline 120 % of control | dose: 10.0 mg/kg/injection, schedule: Q04DX003 (ip), vehicle: saline 115 % of control | dose: 17.0 mg/kg/injection, schedule: Q01DX009 (ip), vehicle: saline 100 % of control and 116 % of control | dose: 20.0 mg/kg/injection, schedule: Q04DX003 (ip), vehicle: saline 110 % of control | dose: 26.0 mg/kg/injection, schedule: Q01DX009 (ip), vehicle: saline 110 % of control | dose: 30.0 mg/kg/injection, schedule: Q01DX001 (ip), vehicle: Klucel (hydroxypropylcellulose) (HPC) 88 % of control | dose: 40.0 mg/kg/injection, schedule: Q01DX009 (ip), vehicle: saline 100 % of control and 116 % of control | dose: 40.0 mg/kg/injection, schedule: Q04DX003 (ip), vehicle: saline 110 % of control
